The text below walks through data of publication PMC6155027, “Mechanistic insights into the host-microbe interaction and pathogen exclusion mediated by the Mucus-binding protein of Lactobacillus plantarum” (Scientific Reports, 2018).

The assay has as its target T1, Mubs5s6 (Lactiplantibacillus plantarum, UniProt F9UP14).
T1 construct: gene lp_1643; last two (fifth and sixth) C-terminal Mub domains with spacers of the about 2200-residue Lp_1643 protein; 366 residues, about 40 kDa; expressed in E. coli as MBP fusion (82 kDa), MBP tag removable with Factor Xa
As to the kind of experiment: biochemical assay (details in supplement). The assay is classed as binding. The conditions noted are these: site predicted by COACH (Asn42, Gly43, Asn224, Thr227, Asn228, Gln229); assay conditions only in supplement.

T1 sequence (F9UP14 entry or part of it): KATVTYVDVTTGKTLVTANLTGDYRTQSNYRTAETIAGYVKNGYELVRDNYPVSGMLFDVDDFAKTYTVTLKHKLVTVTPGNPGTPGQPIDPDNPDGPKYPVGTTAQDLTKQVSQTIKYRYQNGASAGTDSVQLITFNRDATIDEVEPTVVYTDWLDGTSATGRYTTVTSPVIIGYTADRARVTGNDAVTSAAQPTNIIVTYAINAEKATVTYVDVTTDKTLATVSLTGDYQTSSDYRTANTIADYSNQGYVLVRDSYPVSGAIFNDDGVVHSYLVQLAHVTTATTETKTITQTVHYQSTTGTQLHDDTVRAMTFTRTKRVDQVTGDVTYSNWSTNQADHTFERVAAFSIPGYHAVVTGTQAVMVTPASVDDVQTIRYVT

Take `OC[C@H]1OC(O)[C@H](O)[C@@H](O)[C@@H]1O` (stereo partly shown) [glucose]: the “biochemical assay (details in supplement)” value was “We could also confirm the binding of calcium and glucose by Atomic Absorption Spectroscopy and biochemical assay”.
